Source: ChEMBL document CHEMBL1128582, “Chiral dioxolane inhibitors of leukotriene biosynthesis: structure-activity relationships and syntheses using asymmetric dihydroxylation” (J Med Chem, 1995)

Each molecule was assayed against T1, Polyunsaturated fatty acid 5-lipoxygenase (Homo sapiens, UniProt P09917) (assay: Inhibition of LT biosynthesis in vitro using A-23187-stimulated human whole blood.).
T1 sequence (P09917 whole entry): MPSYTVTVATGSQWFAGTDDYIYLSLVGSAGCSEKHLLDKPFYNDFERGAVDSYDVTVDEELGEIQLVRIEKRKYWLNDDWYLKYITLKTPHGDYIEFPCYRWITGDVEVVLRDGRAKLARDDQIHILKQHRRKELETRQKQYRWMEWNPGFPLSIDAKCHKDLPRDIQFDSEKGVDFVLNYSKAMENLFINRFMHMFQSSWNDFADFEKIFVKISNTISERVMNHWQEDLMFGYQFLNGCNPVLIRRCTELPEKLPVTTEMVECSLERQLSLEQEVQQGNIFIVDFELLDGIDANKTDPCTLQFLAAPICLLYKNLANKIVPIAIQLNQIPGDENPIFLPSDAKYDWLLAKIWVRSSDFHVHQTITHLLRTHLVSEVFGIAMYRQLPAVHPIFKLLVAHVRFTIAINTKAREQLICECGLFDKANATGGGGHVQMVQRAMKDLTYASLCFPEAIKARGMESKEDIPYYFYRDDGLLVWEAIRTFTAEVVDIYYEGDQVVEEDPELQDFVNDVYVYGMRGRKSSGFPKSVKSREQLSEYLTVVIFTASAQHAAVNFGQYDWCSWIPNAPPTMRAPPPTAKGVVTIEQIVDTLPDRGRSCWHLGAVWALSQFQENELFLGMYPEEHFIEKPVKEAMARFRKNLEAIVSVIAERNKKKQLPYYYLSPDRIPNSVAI
Format: functional, tissue-based

SMILES	IC50 [nM]
CC1(C)OCC(C)(c2cccc(OCc3ccc4ccccc4c3)c2)O1 (stereo unspecified)	350
CN(c1ccc(Sc2cc(C3(C)COC(C)(C)O3)cs2)cc1)S(C)(=O)=O (stereo unspecified)	160
CO/N=C(\C)c1ccc(Sc2cc(C3(C)COC(C)(C)O3)cs2)cc1 (stereo unspecified)	270
CC(=O)c1ccc(Sc2cc(C3(C)COC(C)(C)O3)cs2)cc1 (stereo unspecified)	600
CN(C)S(=O)(=O)c1ccc(Sc2cc(C3(C)COC(C)(C)O3)cs2)cc1 (stereo unspecified)	210
CN1C(=O)CCc2ccc(Sc3cc(C4(C)COC(C)(C)O4)cs3)cc21 (stereo unspecified)	100
CC(=O)N(C)c1ccc(Sc2cc(C3(C)COC(C)(C)O3)cs2)cc1 (stereo unspecified)	150
CC(=O)N(C)c1ccc(Sc2cc([C@]3(C)COC(C)(C)O3)cs2)cc1	1180
C/C(=N\O)c1ccc(S(=O)(=O)c2ncc([C@@]3(C)COC(C)(C)O3)s2)cc1	200
C/C(=N\O)c1ccc(S(=O)(=O)c2cc([C@@]3(C)COC(C)(C)O3)cs2)cc1	90
CC(=O)c1ccc(Sc2ncc([C@@]3(C)COC(C)(C)O3)s2)cc1	390
COC1(c2sc(Sc3ccc4c(c3)CCC(=O)N4C)nc2C)CCOCC1	140
C/C(=N\OCCN1CCOCC1)c1ccc(Sc2cc([C@@]3(C)COC(C)(C)O3)cs2)cc1	1510
C/C(=N\OCC#N)c1ccc(S(=O)(=O)c2ncc([C@@]3(C)COC(C)(C)O3)s2)cc1	120
CC(=O)N(C)c1ccc(Sc2ncc([C@]3(C)COC(C)(C)O3)s2)cc1	6210
C/C(=N\O)c1ccc(Sc2ncc([C@@]3(C)COC(C)(C)O3)s2)cc1	130
CC(=O)N(C)c1ccc(S(=O)(=O)c2cc(C3(C)COC(C)(C)O3)cs2)cc1 (stereo unspecified)	840

Molecules with a lower IC50, results first:

IC50 [nM]	SMILES
20	COC1(c2cc(Sc3ccc(/C(C)=N/O)cc3)cc(F)c2C)CCOCC1
40	C/C(=N\O)c1ccc(Sc2cc(C3(C)COC(C)(C)O3)cs2)cc1 (stereo unspecified)
20	COC1(c2cc(OCc3ccc4c(ccc(=O)n4C)c3)cc(F)c2C)CCOCC1
50	C/C(=N\OCC#N)c1ccc(S(=O)(=O)c2cc([C@@]3(C)COC(C)(C)O3)cs2)cc1
40	COC1(c2cc(Sc3ccc4c(c3)OCC(=O)N4C)cc(F)c2C)CCOCC1
40	COC1(c2cc(S(=O)(=O)c3ccc4c(ccc(=O)n4C)c3)ccc2C)CCOCC1
60	COC1(c2cc(Sc3ccc4c(c3)CCC(=O)N4C)cc(F)c2C)CCOCC1
10	C/C(=N\OCC#N)c1ccc(Sc2cc([C@@]3(C)COC(C)(C)O3)cs2)cc1
40	CC(=O)N(C)c1ccc(Sc2cc([C@@]3(C)COC(C)(C)O3)cs2)cc1
40	C/C(=N\O)c1ccc(Sc2cc([C@@]3(C)COC(C)(C)O3)cs2)cc1
40	CN1C(=O)COc2ccc(Sc3cc(C4(C)COC(C)(C)O4)cs3)cc21 (stereo unspecified)
30	COC1(c2cc(Sc3ccc(N(C)C(C)=O)cc3)cc(F)c2C)CCOCC1
20	COC1(c2cc(Sc3ccc4c(c3)CCC(=O)N4C)sc2C)CCOCC1
30	C/C(=N\OCC#N)c1ccc(Sc2ncc([C@@]3(C)COC(C)(C)O3)s2)cc1
